Source: patent publication US8063008B2, “Enzymatic production of peracids using perhydrolytic enzymes” (E. I. du Pont de Nemours and Company, priority 2005, dated 2011)
Several values for one entry are separate records, joined by “and”; a condition that tells them apart may be missing. Equal values may be shown once. Read-outs that look alike come from different tables or passages of the source.

Tests used:
[1] = Protease-catalyzed perhydrolysis of diacetamide at pH 6.5 (Example 9); assay type: biochemical; settings: pH 6.5, 500 mM H2O2, 1 mg protease
Description: (§1) Into a 4-mL glass vial with stir bar was added 1 mg protease (Table 6) in 0.050 mL of 50 mM potassium phosphate buffer (pH 6.5), 0.900 mL of an aqueous mixture containing either a) acetamide (278 mM) in 50 mM potassium phosphate buffer (pH 6.5) or b) diacetamide (278 mM) in 50 mM potassium phosphate buffer (pH 6.5), and 0.052 mL 30% hydrogen peroxide (500 mM final concentration). […] A portion of the filtered reaction samples was diluted 1:10 with dd water and analyzed for hydrogen peroxide, and the remaining portion of the sample was directly analyzed for peracid using the HPLC assay method (Table 10).

[2] = Protease-catalyzed perhydrolysis of triacetin at pH 6.5 (Example 8); assay type: biochemical; settings: pH 6.5, 500 mM H2O2, 1 mg protease
Description: The analytical procedure described by U. Karst et al. (Anal. Chem., 69 (17):3623-3627 (1997)) was employed, as described herein, for analysis of product mixtures containing peracid and hydrogen peroxide. Briefly, the concentration of peracetic acid (PAA) in analyzed samples ranged from 0.025 mM-10 mM, and the concentration of H2O2 ranged from 0.075 mM-3 mM. Reaction mixtures containing peracid and/or hydrogen peroxide were, if necessary prior to analysis, diluted to produce a concentration of peracid or peroxide in these ranges. Into a 4-mL vial was placed 0.100 mL of 20 mM methyl p-tolyl sulfide (MTS) in acetonitrile, 0.300 mL of distilled and deionized water (dd) and 0.100 mL of sample solution (undiluted or diluted with dd water by a factor of up to 1:25 for analysis of peracid), or 0.100 mL of 20 mM MTS in acetonitrile and 0.390 mL of dd water were added to 0.010 mL of a 1:10 dilution of sample solution (for analysis of hydrogen peroxide). After a reaction time of 10 minutes (in the dark, with no stirring), 0.400 mL CH3CN and 0.100 mL of 40-mM triphenylphosphine (TPP) in CH3CN were added to start the second derivatization reaction for detection of peroxide. The solution was left standing in the dark for 30 min to complete the assay reaction. At the end of 30 minutes, 0.100 mL of 10 mM N,N-diethyl-m-toluamide (DEET, HPLC external standard) was added and the resulting solution analyzed by HPLC: Supelco Discovery C8 10-cm column with pre-column, 10-μL injection, UV detection at 225 nm, solvent A: acetonitrile, solvent B: deionized water, 1 mL/min gradient as follows: […]
Into a 4-mL glass vial with stir bar was added 1 mg protease (Table 6) in 0.050 mL of 50 mM sodium phosphate buffer (pH 6.5), 0.900 mL of an aqueous mixture containing triacetin (278 mM) in 50 mM phosphate buffer (pH 6.5), and 0.052 mL 30% hydrogen peroxide (500 mM final concentration). After stirring for 5 or 30 minutes at 22° C., a 0.250 mL sample was filtered using a 30,000 NMWL filter (Millipore UltraFree-MC) centrifuged for 2 minute at 12,000 RPM. A portion of the filtered reaction samples was diluted 1:10 with dd water and analyzed for hydrogen peroxide, and the remaining portion of the sample was directly analyzed for peracid using the HPLC assay method (Table 9).

[3] = Protease-catalyzed perhydrolysis of acetamide at pH 6.5 (Example 9); assay type: biochemical; settings: pH 6.5, 500 mM H2O2, 1 mg protease
Description: as §1

[4] = Protease-catalyzed perhydrolysis of acetamide at pH 4.0 (Example 6); assay type: biochemical; settings: pH 4.0, 500 mM H2O2, 1 mg protease
Description: as §1, with “sodium acetate/acetic acid” for “potassium phosphate”, “4.0),” for “6.5),”, “4.0)” for “6.5)”, “7).” for “10).”

[5] = Protease-catalyzed perhydrolysis of diacetamide at pH 4.0 (Example 6); assay type: biochemical; settings: pH 4.0, 500 mM H2O2, 1 mg protease
Description: as §1, with “sodium acetate/acetic acid” for “potassium phosphate”, “4.0),” for “6.5),”, “4.0)” for “6.5)”, “7).” for “10).”

[6] = Protease-catalyzed perhydrolysis of triacetin at pH 4.0 (Example 7); assay type: biochemical; settings: pH 4.0, 500 mM H2O2, 1 mg protease
Description: as §1, with “sodium acetate/acetic acid” for “potassium phosphate”, “4.0),” for “6.5),”, “triacetin” for “either a) acetamide”, “4.0),” for “6.5) or b) diacetamide (278 mM) in 50 mM potassium phosphate buffer (pH 6.5),”, “8).” for “10).”

[7] = test system: E. coli ATCC 11229; assay: Determination of Minimum Biocidal Concentration (MBC), XTT reduction inhibition (Example 21); assay type: cell-based; settings: for replicate OD (450 nm): replicates 1-8
Source text: The method described by J. Gabrielson, et al. (J. Microbiol. Methods 50: 63-73 (2002)) was employed for determination of the Minimum Biocidal Concentration (MBC) of peracids, or for determination of the MBC of hydrogen peroxide and enzyme substrates. The assay method is based on XTT reduction inhibition, where XTT ((2,3-bis[2-methoxy-4-nitro-5-sulfophenyl]-5-[(phenylamino)carbonyl]-2H-tetrazolium, inner salt, monosodium salt) is a redox dye that indicates microbial respiratory activity by a change in optical density (OD) measured at 490 nm or 450 nm. However, there are a variety of other methods available for testing the activity of disinfectants and antiseptics including, but not limited to viable plate counts, direct microscopic counts, dry weight, turbidity measurements, absorbance, and bioluminescence (see, for example Brock, Semour S., Disinfection, Sterilization, and Preservation, 5th edition, Lippincott Williams & Wilkins, Philadelphia, Pa., USA; 2001).
The filtered enzyme-generated product mixture was diluted 1:5 with sterile water, and the resulting solution was further diluted with sterile water in four 1:1 serial dilutions to obtain the concentrations of PAA and hydrogen peroxide listed in Table 22.
The 1:5 dilution and four serial dilutions were evaluated for biocidal activity by mixing 0.100 mL of the PAA-containing solution with 0.100 mL of an inoculum containing 2.7×10^6 CFU/mL of E. coli ATCC 11229 (American Type Culture Collection, Manassas, Va.) in Millers LB broth diluted with Butterfield Buffer; eight replicates of each mixture were contained in individual wells of a sterile 96-well microtiter plate. After the resulting cell suspensions were allowed to stand for 10 minutes at room temperature, they were tested for viability using the growth indicator XTT (2,3-bis[2-methoxy-4-nitro-5-sulfophenyl]-5-[(phenylamino)carbonyl]-2H-tetrazolium, inner salt, monosodium salt; CAS RN 111072-31-2) according to the method of Gabrielson et al. (J. Microbiol. Methods, 50:63-73 (2002)).
Separately, the cell inoculum was treated with sterile solutions of triacetin (Table 24) or hydrogen peroxide in 50 mM phosphate buffer (pH 6.5) (Table 25) at the concentrations present in each of the biocide dilutions in Table 23 to determine the MBC for these components of the biocide solution.

[8] = molecular target: protease subtilisin from Bacillus amyloliquefaciens (Bacillus amyloliquefaciens, UniProt P00782); settings: cited from earlier work
[9] = Enzymatic perhydrolysis of a mixture of diacetin (250 mM), triacetin (88 mM) and monoacetin (192 mM) using lipase and Neutrase at pH 4.0 and 6.5 (Example 25); assay type: biochemical; settings: monoacetin 192 mM, H2O2 500 mM, 22° C.
Description: Reaction mixtures were prepared containing 1 mg lipase (A “Amano” 12 (Amano), Validase AN (Valley Research), or ICR-110 (BioCatalytics)), and 20 μL Neutrase® (Novozymes) in 1.0 mL of 50 mM buffer (either sodium acetate/acetic acid buffer at pH 4.0, or potassium phosphate buffer at pH 6.5), additionally containing a mixture of diacetin (250 mM), triacetin (88 mM) and monoacetin (192 mM) and hydrogen peroxide (500 mM). After stirring for 5 or 30 minutes at 22° C., a 0.250-mL sample was filtered using a 30,000 NMWL filter (Millipore UltraFree-MC) centrifuged for 2 minutes at 12,000 RPM. A portion of the filtered reaction samples was diluted 1:10 with dd water and analyzed for hydrogen peroxide, and the remaining portion of the sample was directly analyzed for peracid using the HPLC assay method (Table 30). Reactions were also run with lipase alone or Neutrase® alone for comparison of peracetic acid concentrations produced without the combination of lipase and Neutrase®.

[10] = Enzymatic perhydrolysis of triacetin using a combination of lipase and Neutrase at pH 4.0 and 6.5 (Example 24); assay type: biochemical; settings: triacetin 250 mM, H2O2 500 mM, 22° C.
Description: Reaction mixtures were prepared containing 1 mg lipase (A “Amano” 12 (Amano), Validase AN (Valley Research), or ICR-110 (BioCatalytics)), and 20 μL Neutrase® (Novozymes) in 1.0 mL of 50 mM buffer (either sodium acetate/acetic acid buffer at pH 4.0, or potassium phosphate buffer at pH 6.5), additionally containing triacetin (250 mM) and hydrogen peroxide (500 mM). […] A portion of the filtered reaction samples was diluted 1:10 with dd water and analyzed for hydrogen peroxide, and the remaining portion of the sample was directly analyzed for peracid using the HPLC assay method (Table 29). Reactions were also run with lipase alone or Neutrase® alone for comparison of peracetic acid concentrations produced without the combination of lipase and Neutrase®.

[11] = Enzymatic perhydrolysis of propyl acetate at pH 6.5 (Example 11, comparative); assay type: biochemical; settings: pH 6.5, 2 mg enzyme
Description: Into a 4-mL glass vial with stir bar was added 2 mg of one of the following enzymes: acetylcholinesterase (Sigma, C-2888), Lipase G “Amano” 50 (Amano), or Chirazyme L2, lyo. (C. antartica lipase B, BioCatalytics) dissolved in 0.050 mL of 50 mM potassium phosphate buffer (pH 6.5). To the vial was then added either a) 0.930 mL of a solution containing 50 mM potassium phosphate buffer (pH 6.5) and 215 mM propyl acetate, followed by 0.021 mL 30% hydrogen peroxide (200 mM final hydrogen peroxide concentration) or b) 0.900 mL of a solution containing 278 mM triacetin in 50 mM potassium phosphate buffer (pH 6.5), 0.024 mL of 50 mM potassium phosphate buffer (pH 6.5), and 0.026 mL 30% hydrogen peroxide (250 mM final concentration). […] A portion of the resulting filtrate was diluted 1:10 with dd water and analyzed for hydrogen peroxide, and the remaining portion of the filtrate was directly analyzed for peracid using the HPLC assay method (Table 12).

Chain of protease subtilisin from Bacillus amyloliquefaciens (P00782 108-382): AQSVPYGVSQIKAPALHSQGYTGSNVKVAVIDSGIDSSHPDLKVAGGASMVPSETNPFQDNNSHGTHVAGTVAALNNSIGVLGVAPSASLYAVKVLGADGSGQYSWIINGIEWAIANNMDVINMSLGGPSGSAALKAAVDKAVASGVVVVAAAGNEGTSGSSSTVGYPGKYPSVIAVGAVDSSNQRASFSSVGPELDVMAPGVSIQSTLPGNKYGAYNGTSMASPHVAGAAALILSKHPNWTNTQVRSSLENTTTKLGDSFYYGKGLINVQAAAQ

## Pepsin
[1]; 5 min
  diacetamide (250 mM) peracetic acid (ppm), 5 min: 259 ppm
[1]; 30 min
  diacetamide (250 mM) peracetic acid (ppm), 30 min: 198 ppm
[2]; 5 min
  triacetin (250 mM) peracetic acid (ppm), 5 min: 111 ppm
[2]; 30 min
  triacetin (250 mM) peracetic acid (ppm), 30 min: 163 ppm
[3]; 5 min
  acetamide (250 mM) peracetic acid (ppm), 5 min: 81 ppm
[3]; 30 min
  acetamide (250 mM) peracetic acid (ppm), 30 min: 67 ppm
[4]; 5 min
  acetamide (250 mM) peracetic acid (ppm), 5 min: 45 ppm
[4]; 30 min
  acetamide (250 mM) peracetic acid (ppm), 30 min: 65 ppm
[5]; 5 min
  diacetamide (250 mM) peracetic acid (ppm), 5 min: 97 ppm
[5]; 30 min
  diacetamide (250 mM) peracetic acid (ppm), 30 min: 120 ppm
[6]; 5 min
  triacetin (250 mM) peracetic acid (ppm), 5 min: 65 ppm
[6]; 30 min
  triacetin (250 mM) peracetic acid (ppm), 30 min: 44 ppm

## OO [Hydrogen Peroxide, hydrogen peroxide]
[7]; Escherichia coli, ATCC11229, 10 min, E. coli ATCC 11229, 1.35×10^6 CFU/mL, 10 minutes at room temperature, XTT, six-log kill, read-out: Minimum Biocidal Concentration (MBC)
  MBC: > 170 µg/mL
[7]; H2O2 42.5 ppm
  blank-corrected mean OD: 1.710
  mean replicate OD (450 nm): 2.134
  replicate OD (450 nm): 2.007 and 2.027 and 1.971 and 2.117 and 2.666 and 2.170 and 2.082 and 2.034
[7]; H2O2 85.1 ppm
  blank-corrected mean OD: 1.466
  mean replicate OD (450 nm): 1.890
  replicate OD (450 nm): 1.889 and 1.815 and 1.795 and 1.962 and 2.153 and 1.880 and 1.793 and 1.834
[7]; H2O2 170.1 ppm
  blank-corrected mean OD: 0.005
  mean replicate OD (450 nm): 0.4295
  replicate OD (450 nm): 0.435 and 0.402 and 0.424 and 0.462 and 0.414 and 0.401 and 0.422 and 0.470
[7]; H2O2 340.2 ppm
  blank-corrected mean OD: 0.009
  mean replicate OD (450 nm): 0.433
  replicate OD (450 nm): 0.423 and 0.439 and 0.425 and 0.432 and 0.452 and 0.440 and 0.428 and 0.424
[7]; H2O2 680.5 ppm
  blank-corrected mean OD: 0.016
  mean replicate OD (450 nm): 0.440
  replicate OD (450 nm): 0.433 and 0.440 and 0.426 and 0.430 and 0.453 and 0.456 and 0.436 and 0.446
[8]; 0.1 M hydrogen peroxide, in less than 6 minutes
  inactivation of the protease subtilisin: > 80%
[8]; 1.0 M hydrogen peroxide, in less than 4 minutes
  inactivation of the protease subtilisin: > 80%

## Neutrase ®: Novozymes; a neutral protease from Bacillus amyloliquefaciens
[9]; pH 4.0, 5 min
  peracetic acid (ppm), 5 min: 50 ppm
[9]; pH 4.0, 30 min
  peracetic acid (ppm), 30 min: 110 ppm
[9]; pH 6.5, 5 min
  peracetic acid (ppm), 5 min: 50 ppm
[9]; pH 6.5, 30 min
  peracetic acid (ppm), 30 min: 110 ppm
[10]; pH 4.0
  peracetic acid (ppm), 5 min: 0 ppm
  peracetic acid (ppm), 30 min: 0 ppm
[10]; pH 6.5
  peracetic acid (ppm), 5 min: 110 ppm
  peracetic acid (ppm), 30 min: 300 ppm

## acetyl cholinesterase
[11]; 5 min
  propyl acetate (200 mM), H2O2 (200 mM) peracetic acid (ppm), 5 min: 0 ppm
[11]; 30 min
  propyl acetate (200 mM), H2O2 (200 mM) peracetic acid (ppm), 30 min: 0 ppm
